Test results as given in patent publication US9376396B2, “Acylaminocycloalkyl compounds suitable for treating disorders that respond to modulation of dopamine D3 receptor” (AbbVie Deutschland GmbH & Co. KG, priority 2012, dated 2016).

Legend:
[1] = Determination of the microsomal half-life / microsomal clearance, human; assay type: in vitro ADME; conditions: human liver microsomes, 0.5 μM test substance, 0.25 mg microsomal protein/ml, NADPH, 37° C.
Experimental: (§1) The metabolic stability of the compounds of the invention was determined in the following assay.
(§2) The test substances were incubated in a concentration of 0.5 μM as follows:
(§3) 0.5 μM test substance are preincubated together with liver microsomes from different species (from rat, human or other species) (0.25 mg of microsomal protein/ml) in 0.05 M potassium phosphate buffer of pH 7.4 in microtiter plates at 37° C. for 5 min. The reaction is started by adding NADPH (1 mg/mL). After 0, 5, 10, 15, 20 and 30 min, 50 μl aliquots are removed, and the reaction is immediately stopped and cooled with the same volume of acetonitrile. The samples are frozen until analyzed. The remaining concentration of undegraded test substance is determined by MSMS. The half-life (T½) is determined from the gradient of the signal of test substance/unit time plot, it being possible to calculate the half-life of the test substance, assuming first order kinetics, from the decrease in the concentration of the compound with time. The microsomal clearance (mCl) is calculated from mCl=ln 2/T½/(content of microsomal protein in mg/ml)×1000 [ml/min/mg] (modified from references: Di, The Society for Biomoleculur Screening, 2003, 453-462; Obach, DMD, 1999 vol 27. N 11, 1350-1359).

[2] = Determination of the microsomal half-life / microsomal clearance, rat; assay type: in vitro ADME; conditions: rat liver microsomes, 0.5 μM test substance, 0.25 mg microsomal protein/ml, NADPH, 37° C.
Experimental: as §1, §2, §3

[3] = molecular target: T1, human dopamine D3 receptors (Homo sapiens, UniProt P35462); experiment: Receptor binding study, dopamine D3 receptor ([125I]-iodosulpride displacement); conditions: membranes of HEK-293 cells, 0.1 nM [125I]-iodosulpride, 25° C., 60 minutes
T1 construct: expressed in transfected cells; host or cells: HEK-293
T1 sequence (P35462 whole entry): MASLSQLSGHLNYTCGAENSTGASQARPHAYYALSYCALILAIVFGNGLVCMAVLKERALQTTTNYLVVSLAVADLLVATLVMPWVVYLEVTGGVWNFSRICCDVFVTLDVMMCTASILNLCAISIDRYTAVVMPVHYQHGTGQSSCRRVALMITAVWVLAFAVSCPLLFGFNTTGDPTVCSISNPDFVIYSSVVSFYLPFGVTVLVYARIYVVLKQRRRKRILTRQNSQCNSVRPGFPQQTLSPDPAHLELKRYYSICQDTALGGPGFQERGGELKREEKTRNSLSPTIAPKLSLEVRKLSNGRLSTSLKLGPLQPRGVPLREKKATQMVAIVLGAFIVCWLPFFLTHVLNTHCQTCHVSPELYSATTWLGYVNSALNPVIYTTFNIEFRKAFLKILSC
Experimental: (§4) The substance to be tested was either dissolved in methanol/Chremophor® (BASF SE) or in dimethyl sulfoxide and then diluted with water to the desired concentration.
(§5) Each assay mixture was run in triplicate. • The incubation buffer contained 50 mM tris, 120 mM NaCl, 5 mM KCl, 2 mM CaCl2, 2 mM MgCl2 and 0.1% bovine serum albumin, 10 μM quinolone and 0.1% ascorbic acid (prepared fresh daily). […] Each assay mixture was run in triplicate. • The incubation buffer contained 50 mM tris, 120 mM NaCl, 5 mM KCl, 2 mM CaCl2, 2 mM MgCl2 and 0.1% bovine serum albumin. The buffer was adjusted to pH 7.4 with HCl. c) Measurement and Analysis: • After having been incubated at 25° C. for 60 minutes, the assay mixtures were filtered through a Whatman GF/B glass fiber filter under vacuum using a cell collecting device. The filters were transferred to scintillation viols using a filter transfer system. After 4 ml of Ultima Gold® (Packard) have been added, the samples were shaken for one hour and the radioactivity was then counted in a Beta-Counter (Packard, Tricarb 2000 or 2200CA).

[4] = molecular target: T2, human dopamine D2L receptors (long isoform) (Homo sapiens, UniProt P14416); experiment: Receptor binding study, dopamine D2L receptor ([125I]iodospiperone displacement), selectivity vs D3; conditions: selectivity ratio, HEK-293 membranes
T2 construct: expressed in transfected cells; host or cells: HEK-293
T2 sequence (P14416 whole entry, canonical isoform): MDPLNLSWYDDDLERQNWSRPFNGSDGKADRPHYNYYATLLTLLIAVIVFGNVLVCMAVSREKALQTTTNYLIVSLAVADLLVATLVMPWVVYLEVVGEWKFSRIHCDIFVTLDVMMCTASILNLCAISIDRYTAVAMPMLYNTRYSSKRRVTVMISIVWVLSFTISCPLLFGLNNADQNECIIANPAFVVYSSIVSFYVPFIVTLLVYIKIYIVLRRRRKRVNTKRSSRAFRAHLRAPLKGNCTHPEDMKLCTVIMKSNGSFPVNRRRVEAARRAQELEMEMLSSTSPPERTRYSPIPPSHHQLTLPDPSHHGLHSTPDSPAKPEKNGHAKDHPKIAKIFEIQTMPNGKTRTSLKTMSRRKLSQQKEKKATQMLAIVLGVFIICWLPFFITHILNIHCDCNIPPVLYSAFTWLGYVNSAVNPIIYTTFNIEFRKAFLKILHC
Experimental: as §4, §5

hERG cardiac K+ channel = molecular target: T3, hERG cardiac K+ channel (Homo sapiens, UniProt Q12809); experiment: Blocking the hERG channel ([3H]dofetilide displacement); assay type: binding; conditions: membrane homogenate from HEK 293 cells expressing hERG
T3 construct: expressed in transfected cells; host or cells: HEK-293
T3 sequence (Q12809 whole entry): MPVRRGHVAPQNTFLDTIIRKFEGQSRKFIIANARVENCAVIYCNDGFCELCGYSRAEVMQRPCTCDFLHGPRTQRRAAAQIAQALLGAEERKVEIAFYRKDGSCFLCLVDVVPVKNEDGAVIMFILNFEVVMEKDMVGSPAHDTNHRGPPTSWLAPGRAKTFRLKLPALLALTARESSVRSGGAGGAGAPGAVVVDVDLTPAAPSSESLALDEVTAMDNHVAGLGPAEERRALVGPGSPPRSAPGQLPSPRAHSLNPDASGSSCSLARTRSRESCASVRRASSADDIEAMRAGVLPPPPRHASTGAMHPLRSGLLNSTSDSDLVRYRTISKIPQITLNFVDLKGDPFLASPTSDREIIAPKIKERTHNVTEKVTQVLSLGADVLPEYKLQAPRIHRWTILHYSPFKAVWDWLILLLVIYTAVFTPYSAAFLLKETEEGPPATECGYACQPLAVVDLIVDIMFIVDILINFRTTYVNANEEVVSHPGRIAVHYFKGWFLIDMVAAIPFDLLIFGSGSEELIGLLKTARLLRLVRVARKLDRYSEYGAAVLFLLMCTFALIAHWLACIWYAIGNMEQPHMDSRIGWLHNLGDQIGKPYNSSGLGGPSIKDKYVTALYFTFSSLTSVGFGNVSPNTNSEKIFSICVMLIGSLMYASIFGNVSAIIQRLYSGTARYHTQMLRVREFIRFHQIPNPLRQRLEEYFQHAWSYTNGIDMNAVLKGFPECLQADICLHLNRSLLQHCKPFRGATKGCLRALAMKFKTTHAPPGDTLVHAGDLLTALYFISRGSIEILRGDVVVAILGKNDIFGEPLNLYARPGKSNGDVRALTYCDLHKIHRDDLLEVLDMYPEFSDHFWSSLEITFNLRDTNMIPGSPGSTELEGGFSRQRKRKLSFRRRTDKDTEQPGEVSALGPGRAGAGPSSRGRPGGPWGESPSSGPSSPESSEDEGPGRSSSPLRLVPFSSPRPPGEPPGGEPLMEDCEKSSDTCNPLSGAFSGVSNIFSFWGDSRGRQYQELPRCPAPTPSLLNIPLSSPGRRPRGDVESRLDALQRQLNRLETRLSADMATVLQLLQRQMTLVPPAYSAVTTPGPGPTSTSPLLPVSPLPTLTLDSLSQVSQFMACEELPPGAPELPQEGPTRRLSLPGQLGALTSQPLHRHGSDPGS
Experimental: The binding affinity of test drugs for the hERG cardiac K^+ channel was determined by their ability to displace tritiated dofetilide (a class III antiarrhythmic drug and potent hERG blocker) in membrane homogenates from HEK-293 cells heterogeneously expressing the hERG channel. The assay was performed as previously described G. J. Diaz et al., Journal of Pharmacological and Toxicological Methods, 50 (2004), 187-199). For this, drug dilutions were prepared from 10 mM DMSO stocks and the following were added to a 96-well polystyrene plate (Perkin-Elmer Optiplate): 20 μl of assay binding buffer (for total bounds), or 1 μM astemizole (for non-specific bounds), or test drug, 50 μl of [^3H]dofetilide (20 nM, ˜80 Ci/mmol specific activity), and 130 μl of membrane homogenate from HEK 293 cells stably transfected with hERG K^+ channels (final protein concentration of 30 μg per well). The plates were incubated at ambient temperature for 45 min, aspirated onto GF/B filter plates (Perkin-Elmer), and washed with 2 ml of cold wash buffer. After allowing the plates to dry, 50 μl of scintillant (Perkin-Elmer MicroScint 20) were added to each well and the radioactivity was counted in a Perkin-Elmer Topcount NXT scintillation counter. IC50 determinations were calculated from competition curves using 6 drug concentrations, half-log apart, starting at a high concentration of 100 μM (final assay DMSO concentration=1%) using a four-parameter logistic equation. The results are given as IC50 value.

Human mCl [1] | Rat mCl [2] | Ki [3] | D2/D3 (Ki (D2L)/Ki (D3)) [4] | Compound | IC50 (hERG cardiac K+ channel)
+ (+: 20-120 μl min^−1 mg^−1) | + (+: 20-120 μl min^−1 mg^−1) | < 10 nM | +++ (+++>50) | CC(=O)N[C@H]1CC[C@H](CCN2CCN(c3cc(CCO)nc(C(C)(C)C)n3)CC2)CC1 [Compound 13, trans-N-[4-(2-{4-[2-tert-Butyl-6-(2-hydroxy-ethyl)-pyrimidin-4-yl]-piperazin-1-yl}-ethyl)-cyclohexyl]-acetamide] | > 10000 nM
+ (+: 20-120 μl min^−1 mg^−1) | + (+: 20-120 μl min^−1 mg^−1) | < 10 nM | +++ (+++>50) | COCc1cc(N2CCN(CC[C@H]3CC[C@H](NC(C)=O)CC3)CC2)nc(C(C)(C)C)n1 [Compound 2, trans-N-[4-(2-{4-[2-tert-butyl-6-(methoxymethyl)-pyrimidin-4-yl]-piperazin-1-yl}-ethyl)-cyclohexyl]-acetamide] | > 10000 nM
+ (+: 20-120 μl min^−1 mg^−1) | + (+: 20-120 μl min^−1 mg^−1) | < 10 nM | +++ (+++>50) | COCCc1cc(N2CCN(CC[C@H]3CC[C@H](NC(C)=O)CC3)[C@@H](C)C2)nc(C(C)(C)C)n1 [Compound 9, trans-N-[4-(2-{(2S)-4-[2-tert-Butyl-6-(2-methoxy-ethyl)-pyrimidin-4-yl]-2-methyl-piperazin-1-yl}-ethyl)-cyclohexyl]-acetamide] | > 10000 nM
+ (+: 20-120 μl min^−1 mg^−1) | + (+: 20-120 μl min^−1 mg^−1) | < 10 nM | +++ (+++>50) | COCCc1cc(N2CCN(CC[C@H]3CC[C@H](NC(C)=O)CC3)CC2)nc(C(C)(C)C)n1 [Compound 1, trans-N-[4-(2-{4-[2-tert-Butyl-6-(2-methoxy-ethyl)-pyrimidin-4-yl]-piperazin-1-yl}-ethyl)-cyclohexyl]-acetamide] | > 10000 nM
+ (+: 20-120 μl min^−1 mg^−1) | + (+: 20-120 μl min^−1 mg^−1) | < 50 nM | ++ (++>20) | COCCc1cc(N2CCN(CC[C@H]3C[C@@H](NC=O)C3)CC2)nc(C(C)(C)C)n1 [Compound 17, N-[cis-3-[2-[4-[2-tert-butyl-6-(2-methoxyethyl)pyrimidin-4-yl]piperazin-1-yl]ethyl]cyclobutyl]formamide] | –
+ (+: 20-120 μl min^−1 mg^−1) | + (+: 20-120 μl min^−1 mg^−1) | < 10 nM | +++ (+++>50) | COCCc1cc(N2CCN(CC[C@H]3CC[C@H](NC=O)CC3)CC2)nc(C(C)(C)C)n1 [Compound 11, trans-N-[4-(2-{4-[2-tert-Butyl-6-(2-methoxy-ethyl)-pyrimidin-4-yl]-piperazin-1-yl}-ethyl)-cyclohexyl]-formamide] | > 10000 nM
+ (+: 20-120 μl min^−1 mg^−1) | ∘ (∘: >120 μl min^−1 mg^−1) | < 10 nM | +++ (+++>50) | COCCc1cc(N2CCN(CC[C@H]3CC[C@H](NC(C)=O)CC3)C[C@H]2C)nc(C(C)(C)C)n1 [Compound 6, trans-N-[4-(2-{(3R)-4-[2-tert-Butyl-6-(2-methoxy-ethyl)-pyrimidin-4-yl]-3-methyl-piperazin-1-yl}-ethyl)-cyclohexyl]-acetamide] | > 10000 nM
+ (+: 20-120 μl min^−1 mg^−1) | + (+: 20-120 μl min^−1 mg^−1) | < 50 nM | +++ (+++>50) | CC(=O)N[C@H]1CC[C@H](CCN2CCN(c3cc(CCO)nc(C(C)(C)C)n3)[C@H](C)C2)CC1 [Compound 29, trans-N-[4-[2-[(3R)-4-[2-tert-butyl-6-(2-hydroxyethyl)pyrimidin-4-yl]-3-methyl-piperazin-1-yl]ethyl]cyclohexyl]acetamide] | –
+ (+: 20-120 μl min^−1 mg^−1) | + (+: 20-120 μl min^−1 mg^−1) | < 50 nM | +++ (+++>50) | COCCc1cc(N2CCN(CC[C@@H]3CC[C@@H](NC(C)=O)C3)CC2)nc(C(C)(C)C)n1 [Compound 14, trans-N-[(1R,3S)-3-[2-[4-[2-tert-butyl-6-(2-methoxyethyl)pyrimidin-4-yl]piperazin-1-yl]ethyl]cyclopentyl]acetamide] | –
+ (+: 20-120 μl min^−1 mg^−1) | + (+: 20-120 μl min^−1 mg^−1) | < 50 nM | +++ (+++>50) | CC(=O)N[C@H]1CC[C@H](CCN2CCN(c3cc(CO)nc(C(C)(C)C)n3)CC2)CC1 [Compound 22, trans-N-[4-[2-[4-[2-tert-butyl-6-(hydroxymethyl)pyrimidin-4-yl]piperazin-1-yl]ethyl]cyclohexyl]acetamide] | –
+ (+: 20-120 μl min^−1 mg^−1) | + (+: 20-120 μl min^−1 mg^−1) | < 50 nM | +++ (+++>50) | CC(C)(C)c1nc(CCO)cc(N2CCN(CC[C@H]3CC[C@H](NC=O)CC3)CC2)n1 [Compound 23, trans-N-[4-[2-[4-[2-tert-butyl-6-(2-hydroxyethyl)pyrimidin-4-yl]piperazin-1-yl]ethyl]cyclohexyl]formamide] | –
+ (+: 20-120 μl min^−1 mg^−1) | + (+: 20-120 μl min^−1 mg^−1) | < 10 nM | +++ (+++>50) | COCCc1cc(N2CCN(CC[C@H]3CC[C@H](NC(C)=O)CC3)C[C@@H]2C)nc(C(C)(C)C)n1 [Compound 8, trans-N-[4-(2-{(3S)-4-[2-tert-Butyl-6-(2-methoxy-ethyl)-pyrimidin-4-yl]-3-methyl-piperazin-1-yl}-ethyl)-cyclohexyl]-acetamide] | –
+ (+: 20-120 μl min^−1 mg^−1) | + (+: 20-120 μl min^−1 mg^−1) | < 50 nM | +++ (+++>50) | COCCc1cc(N2CCN(CC[C@H]3C[C@H](NC(C)=O)C3)CC2)nc(C(C)(C)C)n1.O=C(O)C(F)(F)F [Compound 4b, trans-N-[3-(2-{4-[2-tert-Butyl-6-(2-methoxy-ethyl)-pyrimidin-4-yl]-piperazin-1-yl}-ethyl)-cyclobutyl]-acetamide trifluoroacetate] | –
+ (+: 20-120 μl min^−1 mg^−1) | + (+: 20-120 μl min^−1 mg^−1) | < 10 nM | ++ (++>20) | COCCc1cc(N2CCN(CCC3CC(NC=O)C3)CC2)nc(C(C)(C)C)n1.O=C(O)C(F)(F)F (stereo not drawn) [Compound 12, N-[3-(2-{4-[2-tert-Butyl-6-(2-methoxy-ethyl)-pyrimidin-4-yl]-piperazin-1-yl}-ethyl)-cyclobutyl]-formamide trifluoroacetate] | –

Compound | Human mCl [1] | Rat mCl [2] | Ki [3] | D2/D3 (Ki (D2L)/Ki (D3)) [4] | IC50 (hERG cardiac K+ channel)
trans-N-[4-[2-[4-(2-tert-butyl-6-tetrahydrofuran-3-yl-pyrimidin-4-yl)piperazin-1-yl]ethyl]cyclohexyl]formamide [Compound 27] | + (+: 20-120 μl min^−1 mg^−1) | + (+: 20-120 μl min^−1 mg^−1) | < 10 nM | +++ (+++>50) | –
